# US10472677B2, “Translational dysfunction based therapeutics” (Translational Therapeutics, Inc., priority 2005, dated 2019)
# Entries after “also recorded” stand apart in the source; their conditions may differ.
# Experiments:
# eIF4E (G4E) = biological target: T1, eIF4E (G4E) (UniProt P06654+P63073); experiment: electrospray mass spectrometry of purified G4E with Ribavirin and GTP; format: binding, mouse; details: mixture of Ribavirin and GTP, fourfold excess
# T1 construct: made in house; host or cells: E. coli BL21 (DE-3); construct a gift of Gerhard Wagner
# Method: FIG. 10. […] Mass spectra were recorded using the Agilent Technologies 1100 LC/MSD integrated liquid chromatograph single quadrupole electrospray mass spectrometer (ES-MS) operating in positive ion mode. […]; The solution was electrosprayed directly at […] using nebulizer pressure of 20 psi, drying nitrogen gas at 200° C. and 10 L/min, and capillary voltage of 4.5 kV. (a) ES-MS spectrum plotting ion abundance in 20 uL of the above mixture as a function of the mass/charge ratio is shown. […]. Thus, obtaining affinities from mass spectrometry data is confounded by these differences in ionization.
# [1] = biological target: T2, eIF4E:mRNA binding in cells (Mus musculus, UniProt P63073); experiment: immunopurification of eIF4E from treated cells and semiquantitative RT-PCR; format: cell-based
# T2 construct: endogenous in cells; host or cells: NIH 3T3 cells
# Method: Sepharose-conjugated protein G (Amersham Pharmacia) for 30 min at 4° C., incubated with 10 μg of mouse anti-eIF4E antibody (Transduction Laboratories) for 90 min at 4° C., and subsequently incubated overnight at 4° C. upon addition of 0.5 mg yeast tRNA (Sigma-Aldrich), 200 units/ml RNasin (Ambion), and Sepharose-conjugated protein G. Bound Sepharose was washed once with NET-2 buffer supplemented with 1 mg/ml heparin (Sigma-Aldrich) at 4° C., six times with NET-2 buffer alone, and suspended in 100 mM Tris.HCl (pH 6.8)/4% (wt/vol) SDS/20% (vol/vol) glycerol/12% (vol/vol) 2-mercaptoethanol, and incubated for 5 min at 98° C. RNA was extracted once with 25:24:1 […], twice with chloroform:isopropanol, precipitated overnight at −20° C. with 2.5 volumes of absolute ethanol, 0.1 volume of 5 M sodium acetate (pH 5.2), and 20 μg glycogen (Sigma-Aldrich), washed with 75% (vol/vol) ethanol, and resuspended in water. […]. […]
# NIH 3T3 cells = format: cell-based, mouse
# Method: For assessment of necrosis and apoptosis, cells were washed twice with PBS, suspended in 0.14 M NaCl/10 mM Na-Hepes (pH 7.4/2.5 mM CaCl2 at 4° C. at a density of 10^6 cell per ml, and stained with 5 μg/ml propidium iodide and FITC-conjugated annexin V (Becton Dickinson) for 15 min at room temperature Immediately thereafter, cells were washed and analyzed by using a FACSCalibur fluorescence-activated cell scanner (Becton Dickinson). For assessment of cell-cycle profiles, cells were washed twice with PBS, fixed, and permeabilized in 70% (vol/vol) ethanol for 30 min at 4° C., and incubated in PBS containing 10 μg/ml propidium iodide and 30 units/ml RNase A at 37° C. for 30 min. For both measurements, detector gain and compensation settings were adjusted to minimize autofluorescence of unstained cells and channel crosstalk. For cell-cycle analysis, the propidium iodide channel was gated based on light scattering to exclude clumped cells, which may artifactually skew the observed fluorescence intensity.
# Cells were seeded at a density of 5,000 cells per well and maintained in 100 μl per well in 96-well plates. […] Production of formazan was quantified by using a μ Quant plate reader (Bio-Tek Instruments) by monitoring the difference in absorbance at 492 and 690 nm, as referenced to the difference in absorbance of samples containing 50 μl of RPMI medium 1640 without phenol red. […]
# AML-M5 progenitor cells = experiment: clonogenic assay, primary CD34+ progenitors; format: cell-based; details: Homo sapiens, 336 h; 14 days; read-out: apparent IC50 colony formation
# From the text: (§1) Acute myelogenous leukemia (AML) M1, M5, and normal bone marrow specimens were isolated from patients and processed as described. Primary AML cells were obtained from peripheral blood of patients at the Markey Cancer Center, University of Kentucky Medical Center (Lexington, Ky.). Normal bone marrow was obtained as waste material after pathological analysis, surgical marrow harvest, or from the National Disease Research Interchange (Philadelphia). All tissues were obtained with the approval of the Institutional Review Board and appropriate informed consent. Frozen CD34^+ progenitor cells were thawed in Iscove's modified Dulbecco's (IMD) medium supplemented with 10% (vol/vol) FBS. […] Colonies with >20 cells were counted manually and experiments were repeated four times.
# AML-M1 progenitor cells = experiment: clonogenic assay, primary CD34+ progenitors; format: cell-based, human; details: at ca. 1 uM / similar concentrations
# From the text: as §1
# [2] = system: normal bone marrow myeloid progenitors; experiment: clonogenic assay, primary CD34+ progenitors; format: cell-based, human; details: micromolar concentrations
# From the text: as §1
# T2 sequence (P63073 2-217 limits assumed): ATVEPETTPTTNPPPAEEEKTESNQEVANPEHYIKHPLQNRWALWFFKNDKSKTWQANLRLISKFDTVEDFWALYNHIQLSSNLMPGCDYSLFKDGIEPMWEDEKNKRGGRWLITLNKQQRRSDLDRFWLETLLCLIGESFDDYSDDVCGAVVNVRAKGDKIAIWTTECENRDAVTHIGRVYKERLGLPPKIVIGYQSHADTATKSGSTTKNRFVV
# T1 sequence (P06654+P63073 fused): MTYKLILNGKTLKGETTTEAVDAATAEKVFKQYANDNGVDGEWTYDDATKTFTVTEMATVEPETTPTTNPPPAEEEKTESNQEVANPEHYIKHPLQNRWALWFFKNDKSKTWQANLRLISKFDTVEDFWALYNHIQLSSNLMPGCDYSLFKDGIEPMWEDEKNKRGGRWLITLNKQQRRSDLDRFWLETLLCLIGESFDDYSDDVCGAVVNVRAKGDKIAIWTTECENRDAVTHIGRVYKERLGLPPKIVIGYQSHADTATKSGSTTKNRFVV
structure (smiles),measurement,setting,value
"NC(=O)c1ncn([C@@H]2O[C@H](CO)[C@@H](O)[C@H]2O)n1 [Ribavirin, 1-β-D-ribofuranosyl-1,2,4-triazole-3-carboxamide]",binding to eIF4E observed by mass shift,eIF4E (G4E),specific binding
same,cytoplasmic eIF4E:VEGF mRNA complexes,[1]; 1 uM,partly abrogated
same,cytoplasmic eIF4E:actin mRNA complexes,[1]; 100 uM,not disrupted
same,EC50,"[1]; nuclear eIF4E, read-out: apparent EC50 inhibition of eIF4E binding to cyclin D1 mRNA in cells",~1000 nM
same,proportion of cells restricted to the G1 phase,"NIH 3T3 cells; 0.1 μM, untreated 58%",91%
same,concentration with significant effects on viability and metabolism,NIH 3T3 cells; mouse,≥ 100 µM
same,IC50,AML-M5 progenitor cells,~1000 nM
same,colony formation of AML-M1 progenitors,AML-M1 progenitor cells,no effect; also recorded: failed to repress colony formation
same,colony formation of normal bone marrow progenitors,[2],no effect; also recorded: lack of an effect
